These results are taken from patent US12564634B2, “Highly dispersible zinc phthalocyanine-silica nanotubes and preparation method therefor” (priority 2019, dated 2026).

Each structure is given as a SMILES string.

The data set in a line: Dispersion stability analysis with LUMiSizer (transmittance profile under centrifugation). Type of data set: physicochemical. The following applies: aqueous dispersion, 10 min ultrasonication, 5 s intervals, total 55 s, steeper slope = lower dispersion stability, Test Group I value matches the sample stored one day after dispersing. The procedure: In this experimental example, the dispersion stability of highly dispersible zinc phthalocyanine-silica nanotubes was tested. The dispersion stability analysis was performed with the use of LUMiSizer™.
In this regard, the dispersion stability refers to the stability of a dispersed material, and the longer the dispersion state is maintained after being dispersed, the higher the dispersion stability. As a measurement method, there is a method of directly observing the change in dispersion stability of the sample. In this regard, to shorten the observation time, there is a method of letting the sample to experience harsh conditions such as centrifugal force or heating so that the change in dispersion stability of the sample can be checked in a quick time (refer to “Procedures to accelerate the evaluation of long-term stability”, ISO/TR 13097). For example, the sample may undergo centrifugation so that relatively quick sedimentation of particles can occur compared to gravity sedimentation. In this case, layer separation occurs. […] A detector detects the IR rays having transmitted through the sample, and the detected rays are represented in real time as a transmittance profile. It is a method of performing comparative analysis of dispersion stability between samples by quantifying the generation rate, pattern, etc. of such a profile. […]

On to `[Zn+2].c1ccc2c(c1)-c1nc-2nc2[n-]c(nc3nc([n-]c4nc(n1)-c1ccccc1-4)-c1ccccc1-3)c1ccccc21` [Control Group, zinc phthalocyanine], for which the “increase slope of the average value of the transmittance profile (rate in %/s)” value was determined as 17.70 %/s.
